According to patent US8541473B2, “3-aminoxalyl-aminobenzamide derivatives and insecticidal and miticidal agents containing same as active ingredient” (Agro-Kanesho Co., Ltd., priority 2009, dated 2013):

Tests used:
Type in all cases: in vivo
[1] = test system: larvae of Plutella xylostella; experiment: Insecticidal effect on larvae of Plutella xylostella (spray on potted Chinese cabbage); conditions: for rate of killed insects (larvae): 5 days after release of larvae, agonized larvae regarded as killed; for insecticidal effect: comparative compounds, result in words, stated against the 500 ppm result
Protocol: The seeds of Chinese cabbage were sowed in a pot and then the seedlings were raised over 3 weeks. A water-diluted emulsion prepared according to the procedures used in the foregoing drug-preparation Example 1 was sufficiently sprayed on the leaves of these potted plants using an air brush (one concentration, once repeated). After the drug-containing liquid was air-dried, the plants were kept in a thermostatic chamber maintained at 25° C. and the larvae of the insect were set free. After 5 days from the release of the larvae, the latter was examined for whether they were died or not and whether they were in agony or not and the rates of killed insects (larvae) (%) were determined, while the agonized larvae were regarded as killed ones. In this respect, the comparative compounds used in this test were compounds A and B disclosed in JP-A-2006-306771 (Patent Document 25).

[2] = test system: female adults of Tetranychus urticae; experiment: Miticidal effect on adults of Tetranychus urticae (spray on bean leaf-disks); conditions: for rate of killed adults: 4 days after drug-spray, agonized adults regarded as killed; for insecticidal effect: comparative compounds, result in words, stated against the 50 ppm result
Protocol: A polyethylene cup having a volume of 430 ml and filled with water was covered with a cap in which a hole (diameter: about 5 mm) had been formed at the center thereof. A cut having a width of about 5 mm was made on a circular filter paper having a diameter of 6.5 cm, the strip-like portion of the filter paper, which hung down, was inserted into the cup through the hole thereof in such a manner that the portion was immersed in the water contained in the cup, and absorbent cotton was put on the filter paper so that the water in the cup was always supplied to the absorbent cotton. Then, two leaf-disks (2 cm×5 cm) prepared from the primary leaves of bean were put on the absorbent cotton and then these two leaf-disks were inoculated with 10 female adults of Tetranychus urticae. This cup was placed in a cylinder of acrylic resin having a height of 50 cm and an inner diameter of 10 cm and a water-diluted emulsion prepared according to the same procedures used in the foregoing drug-preparation Example 1 was then sprayed on each cup in an amount of 1.35 ml per cup using an air brush (one concentration, once repeated). After the agricultural chemical was sprayed, the cups were kept in a thermostatic chamber maintained at a temperature of 25° C. After 4 days from the drug-spray, the adults were examined, under the observation by a prism binocular, for whether they were died or not and whether they were in agony or not and the rates of killed mites (adults) (%) were determined, while the agonized adults were regarded as killed ones. In this respect, the comparative compounds used in this test were compounds A and B disclosed in JP-A-2006-306771.

nymphs of Myzus persicae = experiment: Effect of killing larvae of Myzus persicae (leaf piece immersion); conditions: for rate of killed nymphs: 7th day after treatment, agonized nymphs regarded as killed; for insecticidal effect: comparative compounds, result in words, stated against the 50 ppm result
Protocol: Three each of adults of Myzus persicae were inoculated on a cut piece (having a size of 3 cm×4 cm) of the leaf of Chinese cabbage and they were made breed for 48 hours within a thermostatic chamber maintained at a temperature of 25° C. After the removal of the adults, each cut piece of the leaf was immersed in a water-diluted emulsion prepared according to the same procedures used in the foregoing Drug-Preparation Example 1 for 5 seconds, and then kept in a thermostatic chamber maintained at 25° C. On 7th day after the foregoing treatment, the nymphs were inspected for whether they were died or not and whether they were in agony or not and the rates (%) of killed nymphs of the plant lice were determined, while the agonized nymphs were regarded as killed ones. In this respect, the comparative compounds used in this test were compounds A and B disclosed in JP-A-2006-306771.

## CCc1cc(C(F)(C(F)(F)F)C(F)(F)F)cc(C)c1NC(=O)c1cccc(NC(=O)C(=O)N(C)C(C)(C)C)c1 [Compound 1-44]
[1]; 5 ppm
  rate of killed insects (larvae): 100%
[2]; 5 ppm
  rate of killed adults: 100%
Nymphs of Myzus persicae; 50 ppm
  rate of killed nymphs: 100%

## Cc1cc(C(F)(C(F)(F)F)C(F)(F)F)ccc1NC(=O)c1cccc(NC(=O)C(=O)N(C)C)c1 [Compound 1-53]
[1]; 50 ppm
  rate of killed insects (larvae): 100%

## CCN(C)C(=O)C(=O)Nc1cccc(C(=O)Nc2c(Cl)cc(C(F)(C(F)(F)F)C(F)(F)F)cc2OC(F)(F)F)c1 [Compound 1-115]
Nymphs of Myzus persicae; 12.5 ppm
  rate of killed nymphs: 100%

## Cc1cc(C(F)(C(F)(F)F)C(F)(F)F)cc(C)c1NC(=O)c1cccc(NC(=O)C(=O)NCCBr)c1 [Compound 1-80]
[1]; 500 ppm
  rate of killed insects (larvae): 100%

## Cc1cc(C(F)(C(F)(F)F)C(F)(F)F)cc(C)c1NC(=O)c1cccc(NC(=O)C(=O)N(C)C)c1 [Compound 1-21]
Nymphs of Myzus persicae; 50 ppm
  rate of killed nymphs: 100%

## CCc1cc(C(F)(C(F)(F)F)C(F)(F)F)cc(C)c1NC(=O)c1cccc(NC(=O)C(=O)N(C)CCF)c1 [Compound 1-103, 3-(N-(2-fluoroethyl)-N-methylaminooxalylamino)-N-(2-ethyl-4-heptafluoroisopropyl-6-methyl)phenylbenzamide]
[2]; 12.5 ppm
  rate of killed adults: 100%

## Cc1cc(C(F)(C(F)(F)F)C(F)(F)Br)cc(C)c1NC(=O)c1cccc(NC(=O)C(=O)N(C)CC(F)(F)F)c1 (centres unmarked) [Compound 2-15]
Nymphs of Myzus persicae; 12.5 ppm
  rate of killed nymphs: 100%

## CCc1cc(C(F)(C(F)(F)F)C(F)(F)F)cc(C)c1NC(=O)c1cccc(NC(=O)C(=O)N(C)CCCl)c1 [Compound 1-78]
[2]; 50 ppm
  rate of killed adults: 100%

## Cc1cc(C(F)(C(F)(F)F)C(F)(F)F)cc(C)c1NC(=O)c1cccc(NC(=O)C(=O)N2CCCC2)c1 [Compound 1-33, 3-(pyrrolidin-1-yl-oxalylamino)-N-(2,6-dimethyl-4-heptafluoroisopropyl)phenylbenzamide]
Nymphs of Myzus persicae; 50 ppm
  rate of killed nymphs: 100%

## COC(=O)C(=O)Nc1cccc(C(=O)Nc2c(C)cc(C(F)(C(F)(F)F)C(F)(F)F)cc2C)c1 [compound A, reference compound]
[1]
  insecticidal effect: did not show any insecticidal effect
[2]
  insecticidal effect: did not show any insecticidal effect
Nymphs of Myzus persicae
  insecticidal effect: did not show any insecticidal effect

## CCc1cc(C(F)(C(F)(F)F)C(F)(F)F)cc(C)c1NC(=O)c1cccc(NC(=O)C(=O)N(C)CC(F)(F)F)c1 [Compound 1-87]
Nymphs of Myzus persicae; 5 ppm
  rate of killed nymphs: 100%
Nymphs of Myzus persicae; 50 ppm
  rate of killed nymphs: 100%

## CCc1cc(C(F)(C(F)(F)F)C(F)(F)F)cc(C)c1NC(=O)c1cccc(NC(=O)C(=O)N(C)C(C)(C)CC)c1 [Compound 1-46]
[2]; 12.5 ppm
  rate of killed adults: 100%

## CCc1cc(C(F)(C(F)(F)F)C(F)(F)F)cc(C)c1NC(=O)c1cccc(NC(=O)C(=O)N(C)C2CCCC2)c1 [Compound 1-47]
[1]; 50 ppm
  rate of killed insects (larvae): 100%
Nymphs of Myzus persicae; 50 ppm
  rate of killed nymphs: 100%

## CCc1cc(C(F)(C(F)(F)F)C(F)(F)F)cc(Br)c1NC(=O)c1cccc(NC(=O)C(=O)N(C)CC(F)F)c1 [Compound 1-109]
[1]; 12.5 ppm
  rate of killed insects (larvae): 100%
[1]; 50 ppm
  rate of killed insects (larvae): 100%
[1]; 500 ppm
  rate of killed insects (larvae): 100%
[2]; 12.5 ppm
  rate of killed adults: 100%
[2]; 50 ppm
  rate of killed adults: 100%
Nymphs of Myzus persicae; 12.5 ppm
  rate of killed nymphs: 100%
Nymphs of Myzus persicae; 50 ppm
  rate of killed nymphs: 100%

## CCc1cc(C(F)(F)C(F)(F)C(F)(F)F)cc(C)c1NC(=O)c1cccc(NC(=O)C(=O)N(C)CC(F)(F)F)c1 [Compound 2-3]
[1]; 12.5 ppm
  rate of killed insects (larvae): 100%

## Cc1cc(C(F)(C(F)(F)F)C(F)(F)F)cc(C)c1NC(=O)c1cccc(NC(=O)C(N)=O)c1 [Compound 1-1]
[1]; 500 ppm
  rate of killed insects (larvae): 100%

## Cc1cc(C(F)(C(F)(F)F)C(F)(F)F)cc(C)c1NC(=O)c1cccc(NC(=O)C(=O)NCCCl)c1 [Compound 1-75]
[1]; 5 ppm
  rate of killed insects (larvae): 100%

## CCc1cc(C(F)(C(F)(F)F)C(F)(F)F)cc(C)c1NC(=O)c1cccc(NC(=O)C(=O)N(C)CC(F)F)c1 [Compound 1-100]
[2]; 12.5 ppm
  rate of killed adults: 100%

## CCOC(=O)C(=O)Nc1cccc(C(=O)Nc2c(C)cc(C(F)(C(F)(F)F)C(F)(F)F)cc2C)c1 [compound B, reference compound]
[1]
  insecticidal effect: did not show any insecticidal effect
[2]
  insecticidal effect: did not show any insecticidal effect
Nymphs of Myzus persicae
  insecticidal effect: did not show any insecticidal effect

## CCc1cc(C(F)(C(F)(F)F)C(F)(F)F)cc(C)c1NC(=O)c1cccc(NC(=O)C(=O)N(CC)C(C)(C)C)c1 [Compound 1-50]
[2]; 12.5 ppm
  rate of killed adults: 100%

## Cc1cc(C(F)(C(F)(F)F)C(F)(F)F)cc(C)c1NC(=O)c1cccc(NC(=O)C(=O)NC2CCCC2)c1 [Compound 1-19]
[1]; 50 ppm
  rate of killed insects (larvae): 100%

## CCN(C)C(=O)C(=O)Nc1cccc(C(=O)Nc2c(Br)cc(C(F)(C(F)(F)F)C(F)(F)F)cc2C(C)C)c1 [Compound 1-74]
[2]; 50 ppm
  rate of killed adults: 100%

## Cc1cc(C(F)(C(F)(F)F)C(F)(F)F)cc(C)c1NC(=O)c1cccc(NC(=O)C(=O)N(C)C(C)(C)C)c1 [Compound 1-28]
[1]; 5 ppm
  rate of killed insects (larvae): 100%
[2]; 5 ppm
  rate of killed adults: 100%
Nymphs of Myzus persicae; 50 ppm
  rate of killed nymphs: 100%

## CCc1cc(C(F)(C(F)(F)F)C(F)(F)F)cc(CC)c1NC(=O)c1cccc(NC(=O)C(=O)N(C)CC)c1 [Compound 1-57]
[1]; 5 ppm
  rate of killed insects (larvae): 100%

## COc1cc(C(F)(C(F)(F)F)C(F)(F)F)cc(Cl)c1NC(=O)c1cccc(NC(=O)C(=O)N(C)CC(F)(F)F)c1 [Compound 1-112]
[1]; 12.5 ppm
  rate of killed insects (larvae): 100%
[1]; 50 ppm
  rate of killed insects (larvae): 100%
[2]; 50 ppm
  rate of killed adults: 100%

## CC(C)c1cc(C(F)(C(F)(F)F)C(F)(F)F)cc(Br)c1NC(=O)c1cccc(NC(=O)C(=O)N(C)CC(F)(F)F)c1 [Compound 1-96]
[1]; 12.5 ppm
  rate of killed insects (larvae): 100%
[2]; 12.5 ppm
  rate of killed adults: 100%

## Cc1cc(C(F)(C(F)(F)F)C(F)(F)F)cc(C)c1NC(=O)c1cccc(NC(=O)C(=O)N(C)C(C)C)c1 [Compound 1-24]
Nymphs of Myzus persicae; 50 ppm
  rate of killed nymphs: 100%

## CCN(CC)C(=O)C(=O)Nc1cccc(C(=O)Nc2c(C)cc(C(F)(C(F)(F)F)C(F)(F)F)cc2C)c1 [Compound 1-30]
[1]; 50 ppm
  rate of killed insects (larvae): 100%

## CCN(C)C(=O)C(=O)Nc1cccc(C(=O)Nc2c(C)cc(C(F)(C(F)(F)F)C(F)(F)F)cc2Br)c1 [Compound 1-62]
[1]; 12.5 ppm
  rate of killed insects (larvae): 100%
[1]; 50 ppm
  rate of killed insects (larvae): 100%
[1]; 500 ppm
  rate of killed insects (larvae): 100%

## Cc1cc(C(F)(C(F)(F)F)C(F)(F)F)cc(C)c1NC(=O)c1cccc(NC(=O)C(=O)NCCCCl)c1 [Compound 1-83]
[1]; 50 ppm
  rate of killed insects (larvae): 100%

## Cc1cc(C(F)(C(F)(F)F)C(F)(F)F)cc(I)c1NC(=O)c1cccc(NC(=O)C(=O)N(C)C(C)(C)C)c1 [Compound 1-65]
Nymphs of Myzus persicae; 12.5 ppm
  rate of killed nymphs: 100%

## CCc1cc(C(F)(C(F)(F)F)C(F)(F)F)cc(C)c1NC(=O)c1cccc(NC(=O)C(=O)N(C)C2CCC2)c1 [Compound 1-45]
[1]; 12.5 ppm
  rate of killed insects (larvae): 100%

## CCc1cc(C(F)(C(F)(F)F)C(F)(F)F)cc(C)c1NC(=O)c1cccc(NC(=O)C(=O)N(C)C(C)C)c1 [Compound 1-40]
[2]; 5 ppm
  rate of killed adults: 100%

## CCc1cc(C(F)(C(F)(F)F)C(F)(F)F)cc(C)c1NC(=O)c1cccc(NC(=O)C(=O)N(CC)CC(F)(F)F)c1 [Compound 1-97]
Nymphs of Myzus persicae; 12.5 ppm
  rate of killed nymphs: 100%

## CCc1cc(C(F)(F)C(F)(F)C(F)(F)F)cc(C)c1NC(=O)c1cccc(NC(=O)C(=O)N(C)C(C)(C)C)c1 [Compound 2-2]
Nymphs of Myzus persicae; 12.5 ppm
  rate of killed nymphs: 100%
